Measurements taken from US8067452B2, “3-hydroxyisothiazole-4-carboxamidine derivatives as CHK2 inhibitors” (Valeant Pharmaceuticals International, priority 2007, dated 2011).

Target: T1, Chk2 (Homo sapiens, UniProt O96017)
T1 construct: GST; purchased Upstate (Lake Placid, N.Y.)
Assay: In vitro kinase assay with recombinant Chk2 (MBP phosphorylation, [γ-33P]ATP)
Format: biochemical
Conditions: recombinant human GST-Chk2 10 nM, 25 μM MBP, 100 μM ATP, 30 min at 24° C.; read-out: The enzymatic IC50 values of compounds against Chk2
Experimental: In vitro kinase assays with recombinant Chk1 and Chk2. Recombinant human GST-Chk1 and GST-Chk2 proteins were purchased from Upstate (Lake Placid, N.Y.). Assay conditions were based on published protocols with minor modifications. Briefly, 10 nM of Chk1 or Chk2 was used to phosphorylate 25 μM myelin basic protein (MBP) (Invitrogen, Carlsbad, Calif.) This reaction took place in a buffer that contained 8 mM MOPS, pH 7.2, 10 mM β-glycerol phosphate, 1.5 mM EGTA, 0.4 mM EDTA, 0.4 mM sodium orthovanadate, 100 μM ATP, 1 μCi [γ-^33P] ATP, 15 mM MgCl2, 0.4 mM DTT, 0.006% Brij-35, 1% glycerol and 0.2 mg/ml BSA in a final volume of 25 μl. The reaction was incubated for 30 minutes at 24° C. and was terminated by adding 100 μl of 1% trichloroacetic acid. The quenched solution was incubated for 5 min at room temperature to allow the protein to precipitate and then subsequently transferred to a 96-well white GF/B filter plate (Perkin Elmer, Wellesley, Mass.) using a Perkin Elmer Filtermate Universal Harvester. The filter plate was washed ten times with water and once with ethanol before completely drying. 40 μL of Microscint™ (Perkin Elmer, Wellesley, Mass.) was added to each well and the radioactivity that was incorporated into MBP was counted using a Perkin Elmer TopCount. The compound was titrated and its IC50 values against both Chk1 and Chk2 were determined. The reported IC50 values are the average of at least two sets of data. To determine the competitive nature of the compound with ATP, the compound concentration was varied from 0-200 nM while ATP was varied from 50-500 μM in the assays to assess the ATP effect on inhibition. Prism 4.0 software (GraphPad, San Diego Calif.) was used for the IC50 determination and Lineweaver-Burk kinetic analysis.

T1 sequence (O96017 whole entry): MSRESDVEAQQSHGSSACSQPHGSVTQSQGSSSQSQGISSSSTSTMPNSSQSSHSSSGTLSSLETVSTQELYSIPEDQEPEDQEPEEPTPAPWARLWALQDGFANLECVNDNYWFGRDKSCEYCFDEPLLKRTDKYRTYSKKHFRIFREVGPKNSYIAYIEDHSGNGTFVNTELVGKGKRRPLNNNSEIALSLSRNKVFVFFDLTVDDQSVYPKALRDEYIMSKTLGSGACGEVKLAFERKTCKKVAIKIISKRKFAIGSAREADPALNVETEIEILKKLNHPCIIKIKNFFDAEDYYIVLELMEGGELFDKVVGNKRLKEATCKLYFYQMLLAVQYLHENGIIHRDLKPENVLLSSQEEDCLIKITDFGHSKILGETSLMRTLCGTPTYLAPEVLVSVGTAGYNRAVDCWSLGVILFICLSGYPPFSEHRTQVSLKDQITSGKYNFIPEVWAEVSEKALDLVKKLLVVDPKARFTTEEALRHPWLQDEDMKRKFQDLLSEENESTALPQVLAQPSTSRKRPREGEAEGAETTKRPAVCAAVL

SMILES | IC50
N=C(NCC1CCCCC1)c1c(O)nsc1Nc1ccc(Nc2ccccc2)cc1 [Entry 10] | 1000 to 2000 nM
CC(C)NC(=N)c1c(O)nsc1Nc1ccc(Nc2ccccc2)cc1 [Entry 7] | 1 to 500 nM
CC(C)NC(=N)c1c(O)nsc1Nc1ccc(Nc2ccc(Br)cc2)cc1 [Entry 1] | 1 to 500 nM
N=C(NCC(O)CO)c1c(O)nsc1Nc1ccc(Nc2ccc(Br)cc2)cc1 (stereo not shown) [Entry 6] | 1 to 500 nM
N=C(NCC1CCCCC1)c1c(O)nsc1Nc1ccc(Nc2ccc(Br)cc2)cc1 [Entry 4] | 1 to 500 nM
N=C(NCCCCO)c1c(O)nsc1Nc1ccc(Nc2ccc(Br)cc2)cc1 [Entry 5] | 1 to 500 nM
N=C(NCCO)c1c(O)nsc1Nc1ccc(Nc2ccc(Br)cc2)cc1 [Entry 3] | 1 to 500 nM
N=C(NCCO)c1c(O)nsc1Nc1ccc(Nc2ccccc2)cc1 [Entry 9] | 500 to 1000 nM
CC(CO)NC(=N)c1c(O)nsc1Nc1ccc(Nc2ccccc2)cc1 (stereo not shown) [Entry 8] | 1 to 500 nM
N=C(NCC(O)CO)c1c(O)nsc1Nc1ccc(Nc2ccccc2)cc1 (stereo not shown) [Entry 12] | 500 to 1000 nM
N=C(NCCCCO)c1c(O)nsc1Nc1ccc(Nc2ccccc2)cc1 [Entry 11] | 1000 to 2000 nM
CC(CO)NC(=N)c1c(O)nsc1Nc1ccc(Nc2ccc(Br)cc2)cc1 (stereo not shown) [Entry 2] | 1 to 500 nM
N=C(NCc1cccc2ccccc12)c1c(O)nsc1Nc1ccc(Nc2ccccc2)cc1 [Entry 13] | 1 to 500 nM
